Source: US4721715A, “Derivatives of 4-(arylpiperazinyl-ethylaminoethoxy) phenol useful for effecting hypolipidemic therapy or cardiovascular therapy” (Societe Cortial, S.A., priority 1984, dated 1988)
Where a name gives a salt, the structure may show the parent alone. Read-outs that look alike come from different tables or passages of the source.

Legend:
[1] = system: norepinephrine-induced mydriasis; assay: Alpha-blocking activity in vivo: inhibition of norepinephrine-induced mydriasis in mice; conditions: 30 min before 0.75 mg/kg norepinephrine IV
Procedure: (§1) Alpha-blocking activity was determined in vivo in mice with the test involving inhibition of mydriasis induced by norepinephrine. […] Thirty minutes later, 0.75 mg/kg norepinephrine was administered intravenously. […] In vivo alpha-blocking activity was also evaluated by determination of antagonism of phenylephrine-induced hypertension. The test products were administered by the intravenous route to rats that had undergone spinal cord removal and bivagotomy according to the technique by J. S. Gillespie and T. S. Muir (Br. J. Pharmac. Chemother. 30:78-87, 1967). The dosage, maximum activity, and the interval after which residual activity was equal to 50% of the maximum activity are presented below: […]

[2] = system: climbing induced by apomorphine; assay: Neuroleptic activity: climbing test (apomorphine) in mice; format: in vivo; conditions: apomorphine 1.5 mg/kg
Procedure: The neuroleptic activity of COR 2865 was determined in the climbing test. […] They were given 1.5 mg/kg apomorphine in order to induce a maximum climbing level.

[3] = system: mice with hypercholesterolemia; assay: Hypolipidemic activity in mice with diet-induced hypercholesterolemia; format: in vivo; conditions: oral 100 mg/kg on the sixth and seventh day
Procedure: Hypolipidemic Activity: In mice with hypercholesterolemia produced by a diet high in cholesterol and cholic acid fed for seven days, administration of an oral dose of 100 mg/kg COR 2865 on the sixth and seventh day brought about a reduction in serum cholesterol of 31% and a reduction of HP-betalipoproteins of 38% as well as a decrease in the VLDL+LDL/cholesterol ratio.

mice [4] = assay: Toxicity, intraperitoneal administration to mice; conditions: mice, intraperitoneal dose of 200 mg per kg
[5] = Toxicity, intravenous administration to mice; format: in vivo; conditions: mouse, in vivo, intravenous, read-out: mortality rate
mice [6] = assay: Toxicity, intravenous administration to mice; format: in vivo; conditions: intravenous, 6.2 mg/kg
[7] = system: stereotypy induced by apomorphine; assay: Neuroleptic activity: inhibition of apomorphine-induced stereotypy in rats; conditions: 100 mg/kg intraperitoneal, apomorphine 2.5 mg/kg subcutaneous
[8] = system: phenylephrine-induced hypertension; assay: Alpha-blocking activity in vivo: antagonism of phenylephrine-induced hypertension in rats with spinal cord removal and bivagotomy; conditions: Rattus norvegicus, intravenous
Procedure: as §1

[9] = Toxicity, oral administration to mice; format: in vivo; conditions: mouse, in vivo, oral route, confidence interval in parentheses
[10] = system: spontaneously hypertensive rats; assay: Antihypertensive activity, spontaneously hypertensive rats, oral, arterial pressure at the tail; format: in vivo; conditions: 100 mg/kg
Procedure: In another experiment that was also performed with oral administration in spontaneously hypertensive rats, arterial pressure was measured indirectly at the tail two, four and six hours after administration.

Compound: CCOc1ccccc1N1CCN(CCOc2cc(C)c(O)cc2C(C)C)CC1 [COR 2865, 5-Isopropyl-2-methyl-4-((2-ethoxyphenyl)piperazinylethoxy) phenol hydrochloride]
- inhibition of mydriasis ([1]; 1 mg/kg intraperitoneal): 54%
- inhibition of mydriasis ([1]; 2.5 mg/kg intraperitoneal): 80%
- inhibition of the climbing induced by apomorphine ([2]; 10 mg per kg intraperitoneal): 83%
- inhibition of the climbing induced by apomorphine ([2]; 25 mg/kg intraperitoneal): 100%
- reduction in serum cholesterol [3]: 31%
- reduction of HP-betalipoproteins [3]: 38%
- deaths (mice [4]): no deaths
- mortality ([5]; 12.5 mg/kg): 10%
- mortality ([5]; 25 mg/kg): 20%
- mortality ([5]; 50 mg/kg): 5%
- mortality ([5]; 100 mg/kg): 90%
- deaths (mice [6]): no deaths
- inhibition of apomorphine-induced stereotypy [7]: 67%
- ED50 ([8]; 2 min, after 2 min): 0.0117 µmol/kg
- ED50 ([8]; 0.5 h, after 30 min): 0.318 µmol/kg
- ED50 ([8]; 1 h, after 60 min): 0.5 µmol/kg
- inhibition in vivo at 1 µM, 1 µmol/kg ([8]; 10^-6 M/kg, read-out: maximum activity (antagonism of phenylephrine-induced hypertension)): 122%
- LD50 [9]: 1440 mg/kg
- pressure reduction ([10]; four hours after administration): 21%
- pressure reduction ([10]; six hours after administration): 23%
- pressure reduction ([10]; two hours after administration): 19%
